In article PMC12115342, “Preparation and Evaluation of Tadalafil-Loaded Nanoemulgel for Transdermal Delivery in Cold-Induced Vasoconstriction: A Potential Therapy for Raynaud’s Phenomenon” (Pharmaceutics, 2025):
In brackets after ≈: the same amount, converted by molar mass. Where two headings read alike, the source gives them in different places. Values belong to the compound of their own block, whether it stands above or below them.

Columns and labels:
[1] = cited from earlier work
[2] = parameters: method as in doi:10.1016/j.jddst.2022.103166; conditions: cited from earlier work
[3] = cited from earlier work; remark: listed apart in the source
[4] = Equilibrium solubility of TDL in oils, surfactants and cosurfactants; assay type: physicochemical
Method: The equilibrium solubility of TDL in selected oils was measured by adding an excess quantity of the drug to 1 mL of oils (Miglyol® 812 N, Miglyol® 840, Miglyol® 829, triacetin, isopropyl myristate, castor oil, oleic acid, cinnamon oil, N-methyl pyrrolidone) separately in 1.5 mL stoppered glass vials and mixed by a vortex mixer. Samples were further placed at room temperature (25 ± 1 °C) on a shaker (Incu-Shaker, Benchmark Scientific, Edison, NJ, USA) at 180 rpm for 72 h. The mixture was further centrifuged for 15 min at 3000 rpm. The upper supernatant was removed, and the amount of drug was determined using UV analyzer (Jenway, Staffs, UK) at a lambda max of 284 nm. The data presented in Table 1 are the mean values and standard deviations (SDs) for each oil sample, based on three replicates.
The solubility screening of TDL in various surfactants (Tween 80, Span 80, Cremophor RH 40, PEG-400, propylene glycol, isopropyl alcohol, and Transcutol) was performed following the same procedure as the oil screening. The results presented in the article are the mean values and standard deviations (SDs) for surfactant and cosurfactant samples, based on three replicates.

solubility at 72 h ([4]; 25 °C, oil or lipid, thermodynamic from solid, in Castor oil, 25 ± 1 °C, 72 h): 450 ± 30 µg/mL (≈ 1160 µM) | solubility at 72 h ([4]; 25 °C, oil or lipid, thermodynamic from solid, in Cinnamon oil, 25 ± 1 °C, 72 h): 53600 ± 2580 µg/mL (≈ 138000 µM) | solubility at 72 h ([4]; 25 °C, oil or lipid, thermodynamic from solid, in Miglyol 812N, 25 ± 1 °C, 72 h): 330 ± 10 µg/mL (≈ 847 µM) | solubility at 72 h ([4]; 25 °C, oil or lipid, thermodynamic from solid, in Miglyol 829, 25 ± 1 °C, 72 h): 910 ± 140 µg/mL (≈ 2340 µM) | solubility at 72 h ([4]; 25 °C, oil or lipid, thermodynamic from solid, in Miglyol 840, 25 ± 1 °C, 72 h): 290 ± 10 µg/mL (≈ 745 µM) | solubility at 72 h ([4]; 25 °C, oil or lipid, thermodynamic from solid, in Oleic acid, 25 ± 1 °C, 72 h): 190 ± 10 µg/mL (≈ 488 µM) | solubility at 72 h ([4]; 25 °C, oil or lipid, thermodynamic from solid, in Triacetin, 25 ± 1 °C, 72 h): 3830 ± 70 µg/mL (≈ 9840 µM) | solubility at 72 h ([4]; 25 °C, organic solvent or mixture, thermodynamic from solid, in Isopropyl alcohol): 510 ± 10 µg/mL (≈ 1310 µM) | solubility at 72 h ([4]; 25 °C, organic solvent or mixture, thermodynamic from solid, in PEG-400): 14000 ± 1010 µg/mL (≈ 35900 µM) | solubility at 72 h ([4]; 25 °C, organic solvent or mixture, thermodynamic from solid, in Propylene glycol): 840 ± 50 µg/mL (≈ 2160 µM) | solubility at 72 h ([4]; 25 °C, organic solvent or mixture, thermodynamic from solid, in Transcutol): 33400 ± 1320 µg/mL (≈ 85700 µM) | solubility at 72 h ([4]; 25 °C, thermodynamic from solid, in Cremophor RH 40): 27600 ± 1230 µg/mL (≈ 70800 µM) | solubility at 72 h ([4]; 25 °C, thermodynamic from solid, in N-methyl pyrrolidone, 25 ± 1 °C, 72 h): 325000 ± 4560 µg/mL (≈ 835000 µM) | solubility at 72 h ([4]; 25 °C, thermodynamic from solid, in Span 80): 170 ± 30 µg/mL (≈ 437 µM) | solubility at 72 h ([4]; 25 °C, thermodynamic from solid, in Tween 80): 280 ± 10 µg/mL (≈ 719 µM) | solubility at 72 h ([4]; in Cremophor RH 40): ~27600 µg/mL (≈ 70800 µM) | solubility at 72 h ([4]; in Transcutol): ~33400 µg/mL (≈ 85700 µM)
Structure (SMILES): CN1CC(=O)N2[C@H](c3ccc4c(c3)OCO4)c3[nH]c4ccccc4c3C[C@@H]2C1=O [Tadalafil]
half-life [1]: 15 to 17 h | log p [2]: 2.89 | water solubility [3]: 3.2 µg/mL (≈ 8.22 µM) | solubility in water ([3]; lower literature value): 0.73 µg/mL (≈ 1.87 µM) | solubility in water ([3]; upper literature value): 3.48 µg/mL (≈ 8.94 µM)

Structure (SMILES): CCCc1nn(C)c2c(=O)[nH]c(-c3cc(S(=O)(=O)N4CCN(C)CC4)ccc3OCC)nc12 [sildenafil]
half-life [1]: 3.8 h
